Test results: the NIST ThermoML archive (doi:10.1021/je500275j)
± gives the expanded uncertainty stated by the source.

Columns and labels:
[1] = for viscosity / mass density: 100 kPa, Liquid; for viscosity: Falling or rolling sphere viscometry; for mass density: Vibrating tube method
[2] = refractive index (Na D-line) (dimensionless); conditions: 293.15 K; 101.33 kPa; Liquid; Standard Abbe refractometry
[3] = xn = mol fraction of the nth substance listed; conditions: 100 kPa, Liquid; for viscosity: Falling or rolling sphere viscometry; for mass density: Vibrating tube method

Compound | viscosity ([1]; 293.15 K) [mPa·s] | mass density ([1]; 293.15 K) [kg/m3] | viscosity ([1]; 298.15 K) [mPa·s] | mass density ([1]; 298.15 K) [kg/m3] | viscosity ([1]; 303.15 K) [mPa·s] | mass density ([1]; 303.15 K) [kg/m3] | viscosity ([1]; 308.15 K) [mPa·s] | mass density ([1]; 308.15 K) [kg/m3] | viscosity ([1]; 313.15 K) [mPa·s] | mass density ([1]; 313.15 K) [kg/m3] | viscosity ([1]; 318.15 K) [mPa·s] | mass density ([1]; 318.15 K) [kg/m3] | refractive index [2] | further results
CC1CCCCC1 [methylcyclohexane] | 0.733 ± 0.011 | 769.58 ± 0.15 | 0.687 ± 0.011 | 765.23 ± 0.15 | 0.645 ± 0.011 | 760.89 ± 0.15 | 0.608 ± 0.011 | 756.53 ± 0.15 | 0.575 ± 0.011 | 752.17 ± 0.16 | 0.545 ± 0.011 | 747.78 ± 0.16 | 1.4175 ± 0.004 | 
CCCCC1CCCCC1 [butylcyclohexane] + C1CCC(C2CCCCC2)CC1 |  |  |  |  |  |  |  |  |  |  |  |  |  | viscosity ([3]; 293.15 K, x2 = 0): 1.3 ± 0.014 mPa·s; mass density ([3]; 293.15 K, x2 = 0): 799.6 ± 0.15 kg/m3; viscosity ([3]; 298.15 K, x2 = 0): 1.198 ± 0.013 mPa·s; mass density ([3]; 298.15 K, x2 = 0): 795.85 ± 0.15 kg/m3; viscosity ([3]; 303.15 K, x2 = 0): 1.109 ± 0.013 mPa·s; mass density ([3]; 303.15 K, x2 = 0): 792.1 ± 0.15 kg/m3; viscosity ([3]; 308.15 K, x2 = 0): 1.03 ± 0.013 mPa·s; mass density ([3]; 308.15 K, x2 = 0): 788.33 ± 0.15 kg/m3; viscosity ([3]; 313.15 K, x2 = 0): 0.96 ± 0.012 mPa·s; mass density ([3]; 313.15 K, x2 = 0): 784.56 ± 0.15 kg/m3; viscosity ([3]; 318.15 K, x2 = 0): 0.898 ± 0.012 mPa·s; mass density ([3]; 318.15 K, x2 = 0): 780.78 ± 0.15 kg/m3
CCC1CCCCC1 [ethylcyclohexane] | 0.851 ± 0.012 | 788.23 ± 0.15 | 0.796 ± 0.012 | 784.2 ± 0.15 | 0.748 ± 0.011 | 780.16 ± 0.15 | 0.704 ± 0.011 | 776.11 ± 0.15 | 0.665 ± 0.011 | 772.04 ± 0.15 | 0.629 ± 0.011 | 767.96 ± 0.15 | 1.4275 ± 0.004 | 
C1CCC(C2CCCCC2)CC1 [1,1'-bicyclohexyl] + CCC1CCCCC1 |  |  |  |  |  |  |  |  |  |  |  |  |  | viscosity ([3]; 293.15 K, x1 = 1): 4.017 ± 0.033 mPa·s; mass density ([3]; 293.15 K, x1 = 1): 886.39 ± 0.15 kg/m3; viscosity ([3]; 298.15 K, x1 = 1): 3.541 ± 0.029 mPa·s; mass density ([3]; 298.15 K, x1 = 1): 882.79 ± 0.15 kg/m3; viscosity ([3]; 303.15 K, x1 = 1): 3.145 ± 0.026 mPa·s; mass density ([3]; 303.15 K, x1 = 1): 879.19 ± 0.15 kg/m3; viscosity ([3]; 308.15 K, x1 = 1): 2.817 ± 0.023 mPa·s; mass density ([3]; 308.15 K, x1 = 1): 875.6 ± 0.15 kg/m3; viscosity ([3]; 313.15 K, x1 = 1): 2.54 ± 0.022 mPa·s; mass density ([3]; 313.15 K, x1 = 1): 872.01 ± 0.15 kg/m3; viscosity ([3]; 318.15 K, x1 = 1): 2.302 ± 0.02 mPa·s; mass density ([3]; 318.15 K, x1 = 1): 868.43 ± 0.15 kg/m3
CCCCC1CCCCC1 [butylcyclohexane] | 1.3 ± 0.014 | 799.6 ± 0.15 | 1.198 ± 0.013 | 795.85 ± 0.15 | 1.109 ± 0.013 | 792.1 ± 0.15 | 1.03 ± 0.013 | 788.33 ± 0.15 | 0.96 ± 0.012 | 784.56 ± 0.15 | 0.898 ± 0.012 | 780.78 ± 0.15 | 1.4399 ± 0.004 | 
CC1CCCCC1 [methylcyclohexane] + C1CCC(C2CCCCC2)CC1 |  |  |  |  |  |  |  |  |  |  |  |  |  | viscosity ([3]; 293.15 K, x2 = 0): 0.733 ± 0.011 mPa·s; mass density ([3]; 293.15 K, x2 = 0): 769.58 ± 0.15 kg/m3; viscosity ([3]; 298.15 K, x2 = 0): 0.687 ± 0.011 mPa·s; mass density ([3]; 298.15 K, x2 = 0): 765.23 ± 0.15 kg/m3; viscosity ([3]; 303.15 K, x2 = 0): 0.645 ± 0.011 mPa·s; mass density ([3]; 303.15 K, x2 = 0): 760.89 ± 0.15 kg/m3; viscosity ([3]; 308.15 K, x2 = 0): 0.608 ± 0.011 mPa·s; mass density ([3]; 308.15 K, x2 = 0): 756.53 ± 0.15 kg/m3; viscosity ([3]; 313.15 K, x2 = 0): 0.575 ± 0.011 mPa·s; mass density ([3]; 313.15 K, x2 = 0): 752.17 ± 0.16 kg/m3; viscosity ([3]; 318.15 K, x2 = 0): 0.545 ± 0.011 mPa·s; mass density ([3]; 318.15 K, x2 = 0): 747.78 ± 0.16 kg/m3
C1CCC(C2CCCCC2)CC1 [1,1'-bicyclohexyl] | 4.017 ± 0.033 | 886.39 ± 0.15 | 3.541 ± 0.029 | 882.79 ± 0.15 | 3.145 ± 0.026 | 879.19 ± 0.15 | 2.817 ± 0.023 | 875.6 ± 0.15 | 2.54 ± 0.022 | 872.01 ± 0.15 | 2.302 ± 0.02 | 868.43 ± 0.15 | 1.4787 ± 0.004 | Normal melting temperature ([1]; Crystal, DTA): 2.60 ± 6 °C
